Measured values from patent US9839614B2, “Nanoparticle and polymer formulations for thyroid hormone analogs, antagonists, and formulations and uses thereof” (NANOPHARMACEUTICALS LLC, priority 2009, dated 2017).
Values joined by “and” are separate entries in the source; they are usually repeats but may differ in a detail not shown here. Identical values can stand only once.

What was measured:
[1] = tested on: GL261 murine brain tumor cells; assay: GL261 single dose 250 kVp x-ray survival (SHMT and LQ analysis); type: cell-based
Method: To irradiate 25 cm^2 flasks, an x-ray machine was used and (Philips 250 kVp Therapeutic X-ray Machine, Einhoven, […]) operated at 250 kVp and 15 mA with added filtration of 0.4 mm Thoreaus filter. The target to source distance was approximately 30 cm. Dose rates were measured using an R-meter (Victoreen R-meter, Cleveland, Ohio), and converted to absorbed (Gy) doses using appropriate temperature, pressure, and R to Gy conversion factors. The dose rate was 1 Gy per min. Flasks were irradiated at ambient temperature.
For […] analyses, survival data lying at or below 36.8% survival were analyzed by using the log fractional survival (log FxS) versus dose (D). Data were fit using linear regression analysis (SigmaPlot, V. 10, Systat Corp., Point Richmond, Calif.) to obtain the Y-intercept (or n, the extrapolation number) and the slope (1/D0), and their 95% confidence limits. (See Goldstein, A. In: Biostatistics, New York, The MacMillan Co., 1964, p. 140-146). The D0 value (Gy) is defined as the inverse of the slope, and the corrected Dq value (Gy) was then defined using the relationship: Dq(Gy)=ln n×D0(Gy) The 95% confidence limits on Dq were defined using error propagation. (See Chase, et al., In: Principles of Radioisotope Methodology. Minneapolis, Minn. Burgess Publ. Co., 1962, p. 68, 87-90). Statistics: LQ Analysis
For LQ analyses, data lying between a fractional survival of 1.00 and 0.05 were used. The fractional survival data at each dose were transformed using the relationship (−ln F×S/D) and plotted against dose (D). A regression analysis was performed to yield the LQ equation along with their 95% confidence limit values using a t-table with the appropriate (N−1) degrees of freedom. (See Goldstein, A. In: Biostatistics, New York, The MacMillan Co., 1964, p. 140-146).
To determine the tetrac modification factor (TMF), the survival at 2 Gy obtained for control cells was divided by the survival at 2 Gy for tetrac treated cells. The 95% confidence limits on the ratio were determined using error propagation techniques. (See Chase, et al. In: Princiiples of Radioisotope Methodology, Minneapolis, Minn., Burgress Publ. Co., 1962, p. 68, 87-90).

[2] = tested on: matrigel plug angiogenesis; assay: Mouse matrigel model of angiogenesis (plug hemoglobin); type: in vivo, mice (C57BL/6NCr)
Method: Normal male mice (C57BL/6NCr) 6-8 weeks of age and weighing ˜20 g were purchased from Taconic farm. Animals were housed 4 per cage, in controlled conditions of temperature (20-24° C.); humidity (60-70%) and 12 hrs. light/dark cycle provided with food and water ad libitum. […] Aliquots of matrigel were placed into cold polypropylene tubes to prevent the matrigel from solidifying and the angiogenesis promoter added to matrigel with or without agonist. Mice were treated daily. Matrigel was subcutaneously injected as triple injection per animal at 100 μL/animal. At day 14 post plug implant all animals were killed in CO2 chamber and matrigel plugs were collected. Plug hemoglobin content was analyzed from three implants/mice (n=6 per group) to measure angiogenesis.
The matrigel plugs dissected from the mice were carefully stripped of any remaining peritoneum. The plugs were placed into 0.5 mL tube of ddH2O and homogenized for 5-10 min. […] Absorbance was read with a Microplate Manager ELISA reader at 540 nm. […] Hemoglobin concentration is a reflection of the number of blood vessels in the plugs.

GL261 cells = assay: Cell multiplicity (CM) factor after one hour Tetrac exposure; type: cell-based, murine; conditions: after one hour exposure to Tetrac
Method: Cell multiplicity (CM) was determined from Giemsa stained slides by counting the number of cells per microcolony under 20× magnification. At least 400 microcolonies were counted.
The length of time that Tetrac biologically affected GL261 cells was also determined. To do this, the multiplicity relationship defined above was utilized. Tetrac was added to cells one hour prior to the determination of the multiplicity. After the exposure of exponentially growing GL261 cells to Tetrac, the Tetrac containing medium was removed from GL261 cells, which contained an unknown residual and fresh medium (without Tetrac) was added. As a function of time (i.e., 0, 1, 2, 3, 4, 6, 8, and 10 hours, and 1-6 days), the cells, containing an unknown residual amount of remaining Tetrac, were then processed for determination of the multiplicity index (i.e. the number of cells per microcolony).

TTR = TTR (Homo sapiens, UniProt P02766); conditions: cited from earlier work
[3] = Exponential phase (with Tetrac)
[4] = Unfed plateau Phase (with Tetrac)

O=C(O)Cc1cc(I)c(Oc2cc(I)c(O)c(I)c2)c(I)c1 [Tetrac, tetraiodothyroacetic acid]
SF2 (survival at 2 Gy) ([1]; Exponential Phase (with Tetrac), 95% confidence limits in parentheses): 14.2 (10.8-18.8) % | SHMT n ([1]; Exponential phase (with Tetrac 2 μM, 1 h)): 1.06 | LQ α (Gy^−1) [1, 3]: 0.930 Gy^−1 | LQ β (Gy^−2) [1, 3]: 0.003 Gy^−2 | SHMT D0 (Gy) [1, 3]: 1.08 Gy and 1.08 (0.09). Gy | sensitization of hypoxic or oxic cells ([1]; Tetrac 2 μM): sensitize both oxic and hypoxic cells equally | LQ α (Gy^−1) [1, 4]: 1.157 Gy^−1 | LQ β (Gy^−2) [1, 4]: 0.066 Gy^−2 | SF2 (survival at 2 Gy) [1, 4]: 7.6% | SHMT D0 (Gy) [1, 4]: 0.75 Gy | SHMT Dq (Gy) [1, 4]: 0.00 Gy | SHMT n [1, 4]: 1.04 | increase of D0 ([1]; exponentially growing cells): 15% | reduction of Dq ([1]; exponentially growing cells): 100% | reduction of extrapolation number n ([1]; exponentially growing cells): 93% | survival of Tetrac treated cells at 2 Gy ([1]; non-Tetrac treated cells 32% (FIG. 57)): 13% | reduction of D0 ([1]; plateau phase cells): 6% | reduction of Dq ([1]; plateau phase cells): 100% | Mean inhibition of angiogenesis (%) ([2]; FGF 100 ng + Tetrac or analog 10 μg/plug): 90 ± 13% | Mean inhibition of angiogenesis (%) ([2]; T4 + antagonist, each 10 μg/matrigel plug): 89 ± 11% | inhibition of FGF induced angiogenesis ([2]; Tetrac 10 μg): 85% | inhibition of FGF induced angiogenesis ([2]; Tetrac 30 μg): 91% | time at which 50% decrease in the CM factor was recorded (GL261 cells): 60 h | affinity of TTR for Tetrac relative to that for T4 (TTR): 100 times
